Assays:
[1] = tested on: mRNAs in J774.2 cells; assay: Affymetrix microarray: mRNAs up- or down-regulated by Compounds A and B in LPS-stimulated macrophages; format: cell-based, murine; settings: 50 μg/ml compound + 100 ng/ml LPS, 24 hours, J774.2 only; for Numbers of mRNAs with levels significantly altered by both Compounds A and B, in the presence of LPS: Decreased: decreased at least 2-fold by both compounds; for Numbers of mRNAs with levels significantly altered by both Compounds A and B, in the presence of LPS: Increased: increased at least 2-fold by both compounds
Description: (§1) Two murine macrophage cell lines were used: J774.2 (gift from Peter Lambert, Aston University, UK), and RAW 264.7 (ATCC item number TIB-71). Cells were harvested from nearly confluent culture flasks and seeded into 6 well plates at a density of 5×10^6 cells well^−1 in a volume of 3 ml Dulbecco's modified essential medium supplemented with 10% fetal calf serum. After 2 hours, cells were exposed to the following conditions:
5) 50 μg/ml Compound A+100 ng/ml LPS (J774 cells only)
6) 50 μg/ml Compound B+100 ng/ml LPS (J774 cells only)
(§2) The tetracycline compounds were added 1.5 hours post seeding, thirty minutes before the addition of LPS. The plates were incubated at 37° C. at 5% CO2 in a humidified incubator.
(§3) 24 hours after incubation under experimental conditions, media was removed from the wells, and total RNA was purified from each sample using QIAGEN RNeasy® Mini columns. The manipulations which were then performed on the total RNA samples were as outlined in The Affymetrix® GeneChip® Expression Analysis technical manual, sections 2, chapter 1, entitled Eukaryotic Target Preparation. Briefly, RNA was reverse transcribed into double stranded cDNA with an oligo dT primer containing a T7 promoter. The product was then purified by phenol:chloroform:isoamyl extraction and ethanol precipitation, and then used in an […] to synthesize biotin-labelled antisense cRNA (Affymetrix controls of B. subtilis genes excised from pBluescript plasmid with Xho I digestion were added at this stage to control for correct translation and biotin incorporation). The cRNA was then cleaned using QIAGEN RNeasy® Mini columns, and the resulting cRNA solution fragmented using metal-induced hydrolysis.
Samples were prepared for hybridization with the Affymetrix murine genome chips U74AV2 according to the directions in the Affymetrix® GeneChip® Expression Analysis technical manual, sections 2, chapters 3 and 4, entitled Eukaryotic Target Hybridization and Eukaryotic Arrays: Washing Staining and Scanning. Briefly, 15 ug Fragmented cRNA was mixed with Affymetrix hybridization controls, herring sperm DNA, BSA, and concentrated hybridization buffer, boiled for 5 minutes, centrifuged at 14000×g for 5 minutes to obtain a precipitated-free solution, and hybridized with the array for 16 hours. […]
For J774.2 cells stimulated by LPS, two lists were generated, one of mRNAs which were increased at lease 2-fold by Compounds A and/or B, and one of mRNAs which were decreased at least 2-fold by Compounds A and/or B. In the case of mRNAs which were increased, the mRNAs had to be statistically ‘Present’ in the samples which contained Compounds A and/or B (‘Present’ as determined by the Affymetrix microarray suite software).

[2] = in vitro; format: cell-based; settings: African green monkey (COS-1) and Chinese hamster (CHO-K1)
Description: COS-1 and CHO-K1 cell suspensions were prepared, seeded into 96-well tissue culture treated black-walled microtiter plates (density determined by cell line), and incubated overnight at 37° C., in 5% CO2 and approximately 95% humidity. The following day, serial dilutions of drug were prepared under sterile conditions and transferred to cell plates. Cell/Drug plates were incubated under the above conditions for 24 hours. Following the incubation period, media/drug was aspirated and 50 μl of Resazurin (0.042 mg/ml in PBS w/Ca and Mg) was added. The plates were then incubated under the above conditions for 2 hours and then in the dark at room temperature for an additional 30 minutes. Fluorescence measurements were taken (excitation 535 nm, emission 590 nm). The IC50 (concentration of drug causing 50% growth inhibition) was then calculated.

[3] = tested on: mRNAs in J774.2 and RAW264.7 cells; assay: Affymetrix microarray: mRNAs up- or down-regulated by minocycline in murine macrophage cell lines; format: cell-based; settings: 24 hours
Description: as §1
1) control (J774 cells on two separate occasions, and RAW 264.7 cells)
2) 50 μg/ml minocycline (J774 cells on two separate occasions, and RAW 264.7 cells)
3) 100 ng/ml LPS (J774 cells on two separate occasions, and RAW 264.7 cells)
4) 50 μg/ml minocycline+100 ng/ml LPS (J774 cells on two separate occasions, and RAW 264.7 cells)
as §2
as §3, with “hydrolysis. […]” for “hydrolysis.”
For both J774.2 and RAW264.7 cells, two lists were generated, one of mRNAs which were increased at lease 2-fold by minocycline, and one of mRNAs which were decreased at least 2-fold by minocycline. In the case of mRNAs which were increased, the mRNAs had to be statistically ‘Present’ in the samples which contained minocycline (‘Present’ as determined by the Affymetrix microarray suite software). […]
For both J774.2 and RAW264.7 cells stimulated by LPS, two lists were generated, one of mRNAs which were increased at lease 2-fold by minocycline, and one of mRNAs which were decreased at least 2-fold by minocycline. In the case of mRNAs which were increased, the mRNAs had to be statistically ‘Present’ in the samples which contained minocycline (‘Present’ as determined by the Affymetrix microarray suite software).

Row | SMILES | Numbers of mRNAs with levels significantly altered by both Compounds A and B, in the presence of LPS: Decreased [1] | Numbers of mRNAs with levels significantly altered by both Compounds A and B, in the presence of LPS: Increased [1] | IC50 at 24 h [2] | Numbers of mRNAs with levels significantly altered by minocycline, in the presence of LPS: Decreased ([3]; 50 μg/ml minocycline + 100 ng/ml LPS, decreased at least 2-fold, common to all three lists (J774.2 twice, RAW264.7)) | Numbers of mRNAs with levels significantly altered by minocycline, in the presence of LPS: Increased ([3]; 50 μg/ml minocycline + 100 ng/ml LPS, increased at least 2-fold, common to all three lists (J774.2 twice, RAW264.7)) | Numbers of mRNAs with levels significantly altered by minocycline: Decreased ([3]; 50 μg/ml minocycline, no LPS, decreased at least 2-fold, mRNAs common to all three lists (J774.2 twice, RAW264.7)) | Numbers of mRNAs with levels significantly altered by minocycline: Increased ([3]; 50 μg/ml minocycline, no LPS, increased at least 2-fold, mRNAs common to all three lists (J774.2 twice, RAW264.7))
1 | CN(C)C1C(O)=C(C(N)=O)C(=O)[C@@]2(O)C(O)=C3C(=O)c4c(O)ccc(CNCC(C)(C)C)c4C[C@H]3C[C@@H]12 (stereo partly shown) [Compound A] | 108 | 133 | – | – | – | – | –
2 | C[C@H]1c2ccc(N3CCCCC3)c(O)c2C(=O)C2=C(O)[C@]3(O)C(=O)C(C(N)=O)=C(O)C(N(C)C)[C@@H]3[C@@H](O)[C@@H]21 (stereo partly shown) [Compound B] | 108 | 133 | – | – | – | – | –
3 | C[C@H]1c2cccc(O)c2C(=O)C2=C(O)[C@]3(O)C(=O)C(C(N)=O)=C(O)[C@@H](N(C)C)[C@@H]3[C@@H](O)[C@@H]21 [doxycycline] | – | – | > 25 µg/mL | – | – | – | –
4 | CN(C)c1ccc(O)c2c1C[C@H]1C[C@H]3[C@H](N(C)C)C(O)=C(C(N)=O)C(=O)[C@@]3(O)C(O)=C1C2=O [minocycline] | – | – | > 25 µg/mL | 9 | 28 | 4 | 21

Reference: US9562003B2, “Methods of using substituted tetracycline compounds to modulate RNA” (Paratek Pharmaceuticals, Inc., priority 2002, dated 2017)
